From US9114111B2, “Methods for sustained treatment of bladder pain and irritative voiding” (priority 2011, dated 2015)
Like-named read-outs stand apart in the source and are kept apart here.

Columns and labels:
[1] = In vitro release of lidocaine from silicone tube devices in water at about 37° C.; type: physicochemical; conditions: silicone tubes about 3 cm, payload about 60 mg
Protocol: A study was performed to determine the feasibility of delivering drug through the wall of a drug reservoir via diffusion. Devices were formed form silicone tubes having an inner diameter of about 0.060 inches, an outer diameter of 0.076 inches, and a length of about 3 cm. […] Some of the devices included an aperture formed through the tube wall, the aperture having a diameter of 150 μm. […] The devices were tested in vitro in water at about 37° C. […] Another study was performed to investigate the feasibility of delivering drug from a device through both a wall of a drug reservoir and from an aperture in the wall of the drug reservoir. Devices were formed form silicone tubes having a length of about 3 cm. […] The devices were tested in vitro in water at about 37° C.

IC patients = conditions: cited from earlier work

Row | Compound | release from silicone tube with and without apertures [1] | mean pain score (IC patients; immediately following treatment, prior to treatment 6.0) | duration of effect (IC patients; single lidocaine instillation) | mean pain score (IC patients; the next day) | mean pain score (IC patients; with a second instillation)
1 | CCN(CC)CC(=O)Nc1c(C)cccc1C [lidocaine base] | can be released from a silicone tube without any apertures |  |  |  | 
2 | CCN(CC)CC(=O)Nc1c(C)cccc1C [lidocaine] |  | 1.8 | approximately 24 hours | 3.7 | 1.2
